Data set [1] is described as follows: log P by HPLC on reversed-phase column (C 18), EEC Directive 79/831 Annex V.A8. It is filed as physicochemical. The method, then:
In table 1, the log P values were determined in accordance with EEC Directive 79/831 Annex V.A8 by HPLC (High Performance Liquid Chromatography) on a reversed-phase column (C 18), using the method described below: Temperature: 40° C.; Mobile phases: 0.1% aqueous formic acid and acetonitrile; linear gradient from 10% acetonitrile to 90% acetonitrile. Calibration was carried out using unbranched alkan-2-ones (comprising 3 to 16 carbon atoms) with known log P values (determination of the log P values by the retention times using linear interpolation between two successive alkanones). lambda-max-values were determined using UV-spectra from 200 nm to 400 nm and the peak values of the chromatographic signals. In table 2, M+H (Apcl+) and log P are defined as for table 1.

The test system of a further data set is Puccinia recondita. As to the kind of experiment: In vivo preventive test on Puccinia recondita (brown rust on wheat). The conditions noted are these: for protection: in words, at a dose of 500 and 100 ppm of active ingredient, analogues 11 and 13 in very similar conditions. The method, then: [table] […] The young plants of wheat are treated by spraying the active ingredient prepared as described above. […] After 24 hours, the plants are contaminated by spraying the leaves with an aqueous suspension of Puccinia recondita spores. The contaminated wheat plants are incubated for 24 hours at 20° C. and at 100% relative humidity and then for 10 days at 20° C. and at 70-80% relative humidity. The test is evaluated 11 days after the inoculation. 0% means an efficacy which corresponds to that of the control plants while an efficacy of 100% means that no disease is observed.

The mark [2] stands for this setting: Table 1, HPLC, 0.1% aqueous formic acid and acetonitrile, 40° C., second value of a mixture of two diastereoisomers.
Setting [3] is: Table 1, HPLC, 0.1% aqueous formic acid and acetonitrile, 40° C., single value, or first value of a mixture of two diastereoisomers.

Here are results for 44 compounds from patent US10626109B2, “N-hetaryl(thio)carbonyl-2-(benzocycloalken-1-yl)cyclamines and their use as fungicides” (BAYER CROPSCIENCE AKTIENGESELLSCHAFT, priority 2013, dated 2020).

The term logP denotes a log measure of how a compound divides between an organic and an aqueous phase.

Read-outs that look alike come from different tables or passages of the source. Marks after values point to notes of the source that are not given here.

On to `Cn1cc(C(=O)N2CCCC2C2CCc3c(F)cccc32)c(C(F)F)n1` (mixture of isomers) [I.01], for which the logP in data set [1] (setting [2]) came out at 2.98; in data set [1] (setting [3]) it was 2.88.
In the case of `Cn1nc(C(F)F)c(C(=O)N2CCCC2C2CCc3c(F)cccc32)c1F` (mixture of isomers) [I.03], the results for the logP in data set [1] (setting [2]) and in data set [1] (setting [3]) were 3.35 and 3.31, respectively.
In the same order, the values of `Cn1nc(C(F)F)c(C(=O)N2CCCC2C2CCc3cc(Cl)cc(Cl)c32)c1Cl` (mixture of isomers) [I.09] are 4.41 and 4.34.
In the same order, the values of `Cn1nc(C(F)F)c(C(=O)N2CCCC2C2CCc3cc(F)cc(F)c32)c1Cl` (mixture of isomers) [I.12] are 3.59 and 3.55.
In the same order, the values of `Cn1nc(C(F)F)c(C(=O)N2CCCC2C2CCc3cc(F)cc(F)c32)c1F` (mixture of isomers) [I.13] are 3.41 and 3.35.
Regarding `Cn1cc(C(=O)N2CCCC2C2CCc3cc(F)ccc32)c(C(F)F)n1` (mixture of isomers) [I.17], the logP is given as 3.00 in data set [1] (setting [2]) and 2.84 in data set [1] (setting [3]).
Take `Cn1nc(C(F)F)c(C(=O)N2CCCC2C2CCc3cc(F)ccc32)c1F` (mixture of isomers) [I.18]: the logP in data set [1] (setting [2]) was 3.37; in data set [1] (setting [3]) it was 3.29.
Consider `Cn1cc(C(=O)N2CCCC2C2CCc3ccc(Cl)cc32)c(C(F)F)n1` (mixture of isomers) [I.19], for which the logP in data set [1] (setting [2]) is recorded as 3.27; in data set [1] (setting [3]) it was 3.19.
On to `Cn1nc(C(F)F)c(C(=O)N2CCCC2C2CCc3ccc(Cl)cc32)c1Cl` (mixture of isomers) [I.20], for which the logP in data set [1] (setting [2]) turned out to be 3.92; in data set [1] (setting [3]), 3.87.
In the same order, the values of `Cn1nc(C(F)F)c(C(=O)N2CCCC2C2CCc3ccc(Cl)cc32)c1F` (mixture of isomers) [I.21] are 3.70 and 3.68.
Regarding `Cn1nc(C(F)F)c(C(=O)N2CCCC2C2CCCc3ccccc32)c1Cl` (mixture of isomers) [I.25], the logP in data set [1] (setting [2]) is reported as 3.79; in data set [1] (setting [3]) it was 3.68.
In the case of `Cn1nc(C(F)F)c(C(=S)N2CCCC2C2CCCc3ccccc32)c1Cl` (mixture of isomers) [I.28], the values for the logP in data set [1] (setting [2]) and in data set [1] (setting [3]) were 4.77 and 4.56, respectively.
`Cn1cc(C(=O)N2CCCCC2C2CCc3ccccc32)c(C(F)F)n1` (mixture of isomers) [I.29]: the logP in data set [1] (setting [2]) amounted to 3.13; in data set [1] (setting [3]), 2.96.
`Cn1nc(C(F)F)c(C(=O)N2CCCCC2C2CCc3ccccc32)c1F` (mixture of isomers) [I.30]: the logP in data set [1] (setting [2]) is 3.55; in data set [1] (setting [3]), 3.44.
The matching figures for `Cn1cc(C(=O)N2CCCCC2C2CCCCc3ccccc32)c(C(F)F)n1` (mixture of isomers) [I.33]: 3.68 and 3.50.
`Cn1nc(C(F)F)c(C(=O)N2CCCCC2C2CCCCc3ccccc32)c1F` (mixture of isomers) [I.34]: the logP in data set [1] (setting [2]) turned out to be 4.15; in data set [1] (setting [3]), 3.96.
The matching figures for `Cn1cc(C(=O)N2CCCCC2C2CCOc3ccccc32)c(C(F)F)n1` (mixture of isomers) [I.35]: 2.90 and 2.46.
In the same order, the values of `Cn1nc(C(F)F)c(C(=O)N2CCCCC2C2CCOc3ccccc32)c1F` (mixture of isomers) [I.36] are 3.27 and 2.86.
Consider `O=C(c1ccsc1Br)N1CCCC1C1CCc2c(F)cccc21` (single isomer, unassigned) [I.04], for which the logP in data set [1] (setting [3]) was 3.87.
Still for that read-out and setting: then `O=C(c1ccsc1Br)N1CCCC1C1CCc2c(F)cccc21` (single isomer, unassigned) [I.05], with 3.96; and `Cc1cc(C(=O)N2CCCC2C2CCc3c(F)cccc32)c(C)o1` (single isomer, unassigned) [I.06], with 3.74.
Take `Cc1cc(C(=O)N2CCCC2C2CCc3c(F)cccc32)c(C)o1` (single isomer, unassigned) [I.07]: the logP in data set [1] (setting [3]) was 3.90.
Take `Cn1nc(C(=O)N2CCCC2C2CCc3cc(F)cc(F)c32)c(C(F)F)n1` (single isomer, unassigned) [I.14, [2-(5,7-difluoro-2,3-dihydro-1H-inden-1-yl)pyrrolidin-1-yl][5-(difluoromethyl)-2-methyl-2H-1,2,3-triazol-4-yl]methanone]: the chromatographic logP in data set [1] (reversed-phase HPLC column (C 18), Table 1, HPLC, 0.1% aqueous formic acid and acetonitrile, 40° C., single value, or first value of a mixture of two diastereoisomers, read-out: logP) worked out at 3.41.
Take `Cn1nc(C(=O)N2CCCC2C2CCc3cc(F)cc(F)c32)c(C(F)F)n1` (single isomer, unassigned) [I.15, [2-(5,7-difluoro-2,3-dihydro-1H-inden-1-yl)pyrrolidin-1-yl][5-(difluoromethyl)-2-methyl-2H-1,2,3-triazol-4-yl]methanone]: the chromatographic logP in data set [1] (reversed-phase HPLC column (C 18), separated diastereoisomers, preparation Example 1, read-out: log P) turned out to be 3.63.
Take `Cc1nc(C(F)F)c(C(=O)N2CCCC2C2CCc3cc(F)cc(F)c32)s1` (single isomer, unassigned) [I.37]: in data set [1] (setting [3]), the logP amounted to 3.52.
On the same count and under the same terms, then `Cc1nc(C(F)F)c(C(=O)N2CCCC2C2CCc3cc(F)cc(F)c32)s1` (single isomer, unassigned) [I.38], with 3.55; and `Cn1cc(C(=O)N2CCCC2C2CCc3cc(F)cc(F)c32)c(C(F)(F)F)c1` (single isomer, unassigned) [I.39], with 3.68.
Consider `Cn1cc(C(=O)N2CCCC2C2CCc3cc(F)cc(F)c32)c(C(F)(F)F)c1` (single isomer, unassigned) [I.40], for which the logP in data set [1] (setting [3]) was 3.70.
With `Cn1nc(C(F)F)c(C(=O)N(CCc2ccccc2)C2CC2)c1F` [11 from WO-2011/151369, N-cyclopropyl-3-(difluoromethyl)-5-fluoro-1-methyl-N-(2-phenylethyl)-1H-pyrazole-4-carboxamide], the Efficacy is given as 0 ^(a) % in the data set with Puccinia recondita (Table C2, dose 100 ppm, formulated in DMF with 2% of alkylarylpolyglycolether) and 10 ^(a) % with Puccinia recondita (Table C2, dose 500 ppm, formulated in DMF with 2% of alkylarylpolyglycolether). Besides, the protection entry in the data set with Puccinia recondita (wheat) is “poor (less than 40%) to no protection”.
For the compound `CCC(c1ccccc1)C1CCCCN1C(=O)c1c(C(F)F)nn(C)c1F` (stereo not drawn) [136 from WO-2012/052489, [3-(difluoromethyl)-5-fluoro-1-methyl-1H-pyrazol-4-yl][2-(1-phenylpropyl)piperidin-1-yl]methanone], the Efficacy turned out to be 50% with Puccinia recondita (Table C1, dose 100 ppm, wheat) and 65% with Puccinia recondita (Table C1, dose 500 ppm, wheat). Also, the protection result with Puccinia recondita (wheat) is on record as “average protection”.
As to `Cn1nc(C(F)F)c(C(=O)N2CCCC2C2CCc3c(F)cccc32)c1Cl` (stereo not drawn) [I.02], the logP in data set [1] (setting [3]) is reported as 3.48.
The same measure, in the same setting: with `Cn1cc(C(=O)N2CCCC2C2CCc3cc(Cl)cc(Cl)c32)c(C(F)F)n1` (stereo not drawn) [I.08] the figure was 3.61; with `Cn1nc(C(F)F)c(C(=O)N2CCCC2C2CCc3cc(Cl)cc(Cl)c32)c1F` (stereo not drawn) [I.10], 4.14; with `Cn1cc(C(=O)N2CCCC2C2CCc3cc(F)cc(F)c32)c(C(F)F)n1` (stereo not drawn) [I.11], 2.96.
Same read-out and setting: then `Cn1nc(C(F)F)c(C(=O)N2CCCC2C2CCc3cc(F)ccc32)c1Cl` (stereo not drawn) [I.16], with 3.50.
The same measure, in the same setting: with `Cn1cc(C(=O)N2CCCC2C2CCc3ccc(C(C)(C)C)cc32)c(C(F)F)n1` (stereo not drawn) [I.22] the figure was 4.16; with `Cn1nc(C(F)F)c(C(=O)N2CCCC2C2CCc3ccc(C(C)(C)C)cc32)c1Cl` (stereo not drawn) [I.23], 4.82.
As to `Cn1nc(C(F)F)c(C(=O)N2CCCCC2C2CCCc3ccccc32)c1F` (stereo not drawn) [I.31], the logP in data set [1] (setting [3]) is reported as 3.67. In addition, the Efficacy with Puccinia recondita (Table C1, dose 100 ppm, wheat) was determined as 64%; in the data set with Puccinia recondita (Table C1, dose 500 ppm, wheat), 93%. The protection entry with Puccinia recondita (wheat) is reported as “excellent (at least 90%) to average (at least 60%) protection”.
For the compound `Cn1cc(C(=O)N2CCCCC2C2CCCc3ccccc32)c(C(F)F)n1` (stereo not drawn) [I.32], the logP in data set [1] (setting [3]) is 3.17.
With `Cn1nc(C(F)F)c(C(=S)N2CCCC2C2CCc3c(F)cccc32)c1F` (stereo not drawn) [I.41], the logP in data set [1] (setting [3]) stood at 4.01.
In the case of `c1ccc2c(c1)CCC2C1CCCCN1` (stereo not drawn) [IIa.01, 2-(2,3-dihydro-1H-inden-1-yl)piperidine], in data set [1] (logP), the chromatographic logP was 0.52.
On the same count and under the same terms, with `c1ccc2c(c1)CCCC2C1CCCCN1` (stereo not drawn) [IIa.02, 2-(1,2,3,4-tetrahydronaphthalen-1-yl)piperidine] the figure was 1.21.
The same measure, in the same setting: then `c1ccc2c(c1)CCCCC2C1CCCCN1` (stereo not drawn) [IIa.03, 2-(6,7,8,9-tetrahydro-5H-benzo[7]annulen-5-yl)piperidine], with 1.31.
With `c1ccc2c(c1)OCCC2C1CCCCN1` (stereo not drawn) [IIa.04, 2-(3,4-dihydro-2H-chromen-4-yl)piperidine], the chromatographic logP in data set [1] (reversed-phase HPLC column (C 18), Table 2, compounds of formula (IIa), HPLC as for table 1, read-out: logP) is 0.82.
